Assay results reported in patent publication US20240343681A1, “MOLECULES HAVING PESTICIDAL UTILITY AND INTERMEDIATES AND PROCESSES RELATED THERETO” (priority 2021, published 2024).

Assays:
target pests = assay: Screening of separated stereoisomer peaks against target pests; type: in vivo; conditions: SFC-separated R,R and S,S isomers (F107 and F108)
Description: trans-rac-N-(3-Amino-4-chlorophenyl)-2,2-dichloro-3-(4-fluoro-3-(trifluoromethyl)phenyl)cyclopropane-1-carboxamide (C20, 1.0 g, 2.27 mmol) was added to a solution of 2,6-difluoronicotinic acid (0.36 g, 2.27 mmol) in toluene (25 mL). Pyridine (0.72 mL, 9.05 mmol) was added dropwise, and 2,4,6-tripropyl-1,3,5,2,4,6-trioxatriphosphinane 2,4,6-trioxide as a 50% solution in ethyl acetate (5.8 mL, 9.05 mmol) was added at room temperature. The reaction mixture was warmed to 110° C. and stirred for 16 hours, cooled to room temperature, and concentrated under reduced pressure. The residue was diluted with water (80 mL) and was extracted with ethyl acetate (2×80 mL). The combined organic phases were washed with saturated aqueous sodium chloride, dried over anhydrous sodium sulfate, and filtered, and the filtrate was concentrated under reduced pressure.

[1] = test system: Beet Armyworm (Spodoptera exigua, LAPHEG) second instar larva; assay: Bioassay on beet armyworm (BAW), 128-well diet tray assay; type: in vivo; conditions: 50 μg/cm^2 on artificial diet, 25° C., five days
Method in brief: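 Test molecule in 90:10 acetone–water applied at 50 μg/cm^2 onto 1 mL artificial diet and dried; one second-instar larva per well, eight wells. Held 5 days at 25 °C, 14:10 light–dark; percent mortality averaged over the eight wells.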

[2] = test system: Yellow Fever Mosquito (Aedes aegypti, AEDSAE) larvae; assay: Bioassay on yellow fever mosquito (YFM), 96-well plate larval assay; type: in vivo; conditions: 4000 ppm (master plate solution), about 1 day-old larvae, 3 days

SMILES: O=C(Nc1cc(NC(=O)C2C(c3cc(Cl)cc(Cl)c3)C2(Cl)Cl)ccc1Cl)c1cccc(=O)[nH]1 (racemic)
- melting point: 312 to 316 °C

SMILES: O=C(Nc1cc(NC(=O)C2C(c3cc(Cl)cc(Cl)c3)C2(Cl)Cl)ccc1Cl)c1cc(C(F)(F)F)cc(C(F)(F)F)c1 (racemic)
- melting point: 109 to 113 °C

SMILES: O=C(Nc1cc(NC(=O)[C@H]2[C@H](c3ccc(F)c(C(F)(F)F)c3)C2(Cl)Cl)ccc1Cl)c1ccc(F)nc1F (single isomer, unassigned) [F107]
- efficacy against target pests, Peak-2 versus Peak-1 (target pests): significantly greater than Peak-1

SMILES: O=C(Nc1cc(NC(=O)[C@H]2[C@H](c3cc(Cl)cc(Cl)c3)C2(Cl)Cl)ccc1Cl)c1ncc(F)cc1F [F106, N-(2-Chloro-5-((1R,3R)-2,2-dichloro-3-(3,5-dichlorophenyl)cyclopropane-1-carboxamido)phenyl)-3,5-difluoropicolinamide]
- activity against BAW (percent mortality, averaged over eight wells) [1]: exhibited activity
- activity against YFM (scored based on mortality) [2]: exhibited activity

SMILES: O=C(Nc1cc(NC(=O)[C@H]2[C@H](c3ccc(F)c(C(F)(F)F)c3)C2(Cl)Cl)ccc1Cl)c1cnc(F)c(F)c1 [F109, N-(2-Chloro-5-((1R,3R)-2,2-dichloro-3-(4-fluoro-3-(trifluoromethyl)phenyl)cyclopropane-1-carboxamido)phenyl)-5,6-difluoronicotinamide]
- activity against BAW (percent mortality, averaged over eight wells) [1]: exhibited activity
- activity against YFM (scored based on mortality) [2]: exhibited activity
